# Data from patent US20100286220A1, “HNF4alpha ANTAGONISTS AND METHODS OF USE” (Burnham Institute for Medical Research, priority 2009, published 2010).
# “Also recorded” adds a separate entry of the source.
# Tests used:
# human insulin promoter = assay: High-throughput screen / confirmatory assay, insulin promoter-GFP (ins-GFP) transgene in T6PNE cells; type: cell-based; conditions: T6PNE ins-eGFP cells
# Excerpt: Primary β-cells are in short supply and have a strong tendency to undergo apoptosis when manipulated in culture. Therefore, a β-cell model was used for the studies regarding β-cell growth and differentiation. T6PNE cells were derived from human fetal islets and were engineered to express the transcription factors PDX-1, NeuroD1, and E47, which are all present in the human β-cell. It was observed that induction of E47 upregulates the expression of many genes associated with β-cell function, including insulin. Consistent with what occurs in primary β-cells, it also was observed that E47 induction caused growth arrest in the cell line. Therefore, E47 was […] in T6PNE cells. […] Therefore, expression in the transfunctioned cell can be used as a baseline so both up and down regulators of the insulin promoter can be monitored in the screening assays. […] Insulin expression was monitored and visualized by the ins-GFP transgene. Hits were determined and dependent on the ability to differentiate between a baseline condition and the corresponding positive or negative control. […]
# The HTS was performed in a 384-well format where primed T6PNE cells express the ins-GFP transgene and the test compound was added 24 hours later. […] The Images were then analyzed using algorithms (Jeff Price at the Screening Center at the Burnham Institute). […]
# [1] = hoFH patients, ezetimibe 10 mg/day added to statin 80 mg/day; cited from earlier work
# [2] = system: endogenous insulin message; assay: Secondary confirmatory assay, endogenous insulin message in T6PNE cells; type: cell-based, human
# human PPARγ = biological target: T1, human PPARγ (Homo sapiens, UniProt P37231); assay: PPAR response element (PPRE)-luciferase reporter assay in HeLa cells; type: cell-based; conditions: PPRE reporter plasmid with or without human PPARγ expression vector
# T1 construct: expressed in transfected cells; host or cells: HeLa cells
# T1 sequence (P37231 1-505): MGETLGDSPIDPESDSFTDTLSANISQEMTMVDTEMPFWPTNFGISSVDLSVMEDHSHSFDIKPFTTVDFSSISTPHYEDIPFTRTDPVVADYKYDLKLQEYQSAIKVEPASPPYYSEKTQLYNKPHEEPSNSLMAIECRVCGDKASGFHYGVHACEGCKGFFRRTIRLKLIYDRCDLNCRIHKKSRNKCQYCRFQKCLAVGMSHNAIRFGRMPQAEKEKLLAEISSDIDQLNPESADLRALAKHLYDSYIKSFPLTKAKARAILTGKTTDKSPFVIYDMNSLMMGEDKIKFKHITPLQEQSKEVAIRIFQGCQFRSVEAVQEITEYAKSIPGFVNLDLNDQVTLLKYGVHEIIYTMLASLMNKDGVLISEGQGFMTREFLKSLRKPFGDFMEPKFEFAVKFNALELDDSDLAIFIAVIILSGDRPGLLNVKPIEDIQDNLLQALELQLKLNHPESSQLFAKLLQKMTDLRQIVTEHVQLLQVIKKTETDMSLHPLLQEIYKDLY
# Experimental: The core structure of BIM5078, benzimidazole, is related to known PPARγ compounds that functions as agonists or antagonists. BIM5078 was used in a PPAR response element (PPRE)-luciferase reporter assay. HeLa cells were co-transfected with a PPAR response element (PPRE) reporter plasmid and a human PPARγ expression vector. […] Known PPARγ agonists were used as positive controls. The same PPARγ agonist compounds were tested on T6PNE ins-eGFP for their ability to repress the insulin promoter. Known PPARγ agonists are unable to suppress insulin gene transcription. Similarly, other PPAR agonists of the alpha and delta class were also negative in the assay. However, because HNF4α also binds to PPREs, BIM5078's ability to bind HNF4α was further investigated.
# [3] = HBV surface antigen levels in Huh7 cells transfected with wild-type HBV construct (pWTD); type: cell-based, Hepatitis B virus
# Excerpt: (§1) The HBsAg is seen as doublet bands with different glycosylation forms (GP33 and GP36).
# (§2) BIM5078 is an HNF4α antagonist and can be useful in treatment of diseases involving HNF4α modulation. There are a number of HNF4α binding sites in the HBV genome, including the enhancer region, the core promoter and the polymerase. BIM5078 can downregulate the core and polymerase, and it has been discovered that it can effectively suppress or eliminate HBV proliferation. Also, the HNF4α binding sites are well-conserved and no mutations of these sites have yet been discovered in the various HBV strains. Thus, targeting HNF4α can circumvent the resistance seen with traditional therapies. […] The ability of the HNF4α antagonist BIM5078 to reduce viral production in Huh7 cells transfected with the wild-type HBV construct (pWTD) was tested. […] The large decrease in the two glycosylation forms of the surface antigen was visualized as doublet bands (FIG. 9).
# HBV = assay: as above; type: cell-based, Hepatitis B virus; conditions: GP33 and GP36 doublet bands
# Excerpt: as §1, §2
# HNF1α transcription = assay: HNF1α transcription; type: cell-based
# Experimental: HNF1α is a downstream target of HNF4α and has a known binding site on the human insulin gene promoter. […] It is unclear whether HNF4α is modulating the insulin promoter directly or indirectly through a downstream target. Overexpression of HNF1α or HNF4α would overcome the repressive effects of BIM5078. The repressive effect of BIM5078 was lost when it was added to T6PNE cells with high levels of induced E47 (FIG. 8). High E47 levels are thought to resemble the normal state of a β-cell while low levels of E47 to simulate the stress condition.
# HNF4α = biological target: T2, HNF4α (Homo sapiens, UniProt P41235); assay: HNF4α subcellular localization; type: cell-based
# T2 sequence (P41235 1-474): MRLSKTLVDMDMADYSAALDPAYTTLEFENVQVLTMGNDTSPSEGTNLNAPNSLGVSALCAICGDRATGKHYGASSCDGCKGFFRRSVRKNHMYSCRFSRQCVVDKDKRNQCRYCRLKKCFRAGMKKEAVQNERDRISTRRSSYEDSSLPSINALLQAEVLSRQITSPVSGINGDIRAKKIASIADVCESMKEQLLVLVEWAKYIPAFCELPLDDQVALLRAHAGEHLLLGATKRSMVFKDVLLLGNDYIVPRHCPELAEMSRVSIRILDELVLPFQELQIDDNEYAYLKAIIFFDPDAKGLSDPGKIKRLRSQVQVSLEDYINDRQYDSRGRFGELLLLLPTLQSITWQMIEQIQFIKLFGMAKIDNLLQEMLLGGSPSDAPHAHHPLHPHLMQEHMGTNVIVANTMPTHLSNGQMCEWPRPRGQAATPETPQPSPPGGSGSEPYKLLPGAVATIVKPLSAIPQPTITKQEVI
# Excerpt: Many ligands for nuclear receptor subfamilies induce the translocation of their receptors between the cytoplasm and the nucleus.
molecule,measurement,setting,value
CCCCCCCCCCCCCCCC(=O)O [palmitic acid],"insulin promoter activity / insulin gene transcription, effect in words",human insulin promoter,suppresses the insulin promoter activity in a dose-dependent fashion
O=C1[C@H](CC[C@H](O)c2ccc(F)cc2)[C@@H](c2ccc(O)cc2)N1c1ccc(F)cc1 [ezetimibe],total reduction of LDL-C levels,[1],27%
4-hydroxytamoxifen [reference compound],endogenous insulin message with E47 induction,[2]; T6PNE cells with inducible E47,upregulated in a dose-dependent manner
"Cc1nc2ccccc2n1S(=O)(=O)c1cc([N+](=O)[O-])ccc1Cl [BIM5078, 1-(2-Chloro-5-nitrophenylsulfonyl)-2-methyl-1H-benzo[d]imidazole]",repressive effect on insulin expression at high E47,[2]; T6PNE cells with high levels of induced E47 (high 4-hydroxytamoxifen),lost
same,activation of PPRE reporter,human PPARγ,activated the PPRE
same,actin levels,[3],no dependence
same,HBV surface antigen (HBsAg) levels,HBV,decreased their levels of surface antigen; also recorded: decreased the HBsAg protein expression
same,HNF1α transcription,HNF1α transcription,decrease the HNF1α transcription
same,HNF4α localization upon addition of compound,HNF4α,localized entirely in the nucleus
